Like-named read-outs stand apart in the source and are kept apart here.
What was measured:
[1] = test system: Advanced solid tumors or NHL; details: cited from earlier work; for DLTs: G3, at 80 mg, 8 patients
[2] = test system: Relapsed/refractory lymphoma; details: cited from earlier work
K562 cells [3] = experiment: Cell cycle perturbation of K562 cells (DNA content, CD24, annexin V/PI); format: cell-based, human; details: for cells in G1 phase / G1 arrest / G2 arrest: 36 hours of treatment; for cells in G1 phase / G1 arrest: CVT-313 2 μM (p<0.05), lovastatin 12 μM (p<0.01), FIG. 14G; for G2 arrest: one-way ANOVA p<0.01
Experimental: CD24 surface protein was quantified using monoclonal human antibodies. Cells were spun down at 300 g for 3 minutes and washed twice with 1 mL of Cell Staining Buffer. The cell pellet was then resuspended in 50 μl of Cell Staining Buffer containing 0.2 μg of either CD24-APC or CD24-BV421. The tube was rotated at 4° C. in the dark for 30 minutes. After, cells were washed twice (as before) and finally resuspended in 200 μl of Cell Staining Buffer. Cells were excited with 450/45 and 660/20 lasers (wavelength/filter bandwidth, both in nm). For concomitant analysis of DNA content, we used CD24-APC. Cells were incubated with 10 μg/ml Hoechst 33342 in 5 mL of growth medium for 30 minutes prior to the staining protocol. For simultaneous assessment of apoptosis, cells were stained with CD24-BV421. After the final wash, instead of resuspending in 200 μl of Cell Staining Buffer, cells were washed twice with Annexin V Staining Buffer. Cells were then incubated in 50 μl Annexin V Staining Buffer containing 0.2 μg Annexin V-FITC and 100 μg/ml propidium iodide (PI). The reaction was incubated for 15 minutes at room temperature in the dark. Afterward, we added 150 μl of Annexin V Staining Buffer and proceeded to flow cytometry. All samples were measured on a Beckman-Coulter CytoFLEX S flow cytometer. Cells were excited with 450/45, 525/40, and 610/20 lasers. We collected 10,000 events per sample. The resulting data were processed with FlowJo Software for Mac Version 10.
We perturbed the cell cycle with lovastatin and nocodazole, two drugs classically used to synchronize cells in culture (Jackman and O'Connor, 2001), as well as the cyclin-dependent kinase inhibitors CVT-313 (Brooks et al., 1997) and RO-3306 (Vassilev et al., 2006). All drugs were dissolved in DMSO except nocodazole, which was dissolved in ethanol. […] Media was refreshed every 48 hours. After 36 hours of treatment, we stained for CD24 levels and nuclear DNA content. We gated for live, single cells using the forward scatter (FSC) and side scatter channels (SSC). Univariate cell cycle analysis was performed with FlowJo. We confirmed that all drugs perturbed cell cycle by altering the proportions of cells in either G1 or G2/M phase (FIG. 14G). […] Cultures remained under drug treatment until five days had elapsed, at which point we measured CD24 levels and stained for apoptosis (FIG. 14H). As before, we set gates to exclude debris to quantitate annexin V and PI, and measured CD24 in live cells gated on FSC and SSC. The G2 inhibitors, in particular, had very few cells in the FSC/SSC gate (typically below 5%).
For the analysis of annexin V levels in either JQ1- or DMSO-treated CD24^high and CD24^low cells, we used a three-way ANOVA with treatment, cell state, and day as independent variables. […] Multiple hypothesis correction was performed using Tukey's honestly significant difference. For the cell cycle inhibitor experiment, data were analyzed using a one-way ANOVA with Dunnett's post hoc test using either DMSO or EtOH (for RO-3306) as controls.

[4] = test system: Hematologic and solid malignancies; 17 with NMC; details: cited from earlier work
[5] = test system: Relapsed/refractory lymphoma or multiple myeloma; details: cited from earlier work
Acute leukemia, MDS = details: cited from earlier work; for DLTs: G3
NMC = details: cited from earlier work; for toxicities of interest: 4 patients (case series)
[6] = test system: Relapsed/refractory leukemia; details: cited from earlier work
NMC, CRPC, NSCLC = details: cited from earlier work
K562 cells [7] = details: Litzenburger et al., 2017; cited from earlier work
BRD4 = BRD4 CRISPRi of K562 cells; format: cell-based, human
Excerpt: For CRISPRi, we first made lentivirus expressing dCas9-KRAB (Fulco et al., 2016; Xie et al., 2017) from Addgene plasmid #89567, a gift from Gary Hon, packaged in HEK293T cells along with pMD2.G (Addgene plasmid #12259) and psPAX2 (Addgene plasmid #12260), both gifts from Didier Trono. We cloned a BRD4 guide RNA, selected from the Dolcetto collection (Sanson et al., 2018), into the sgOpti plasmid (Addgene plasmid #85681, a gift from Eric Lander & David Sabatini) using Golden Gate assembly with Esp3I. We used an in-house pipeline to design a non-targeting gRNA sequence, which was cloned into CROP-seq-opti (Lalli et al., 2019). Plasmids were transfected into HEK293T cells using Lipofectamine 2000. Media was collected after 24 and 48 hours, and subsequently concentrated using Lenti-X Concentrator. Viral titers were functionally assed on HEK293T cells using the appropriate antibiotic (blasticidin or puromycin).
Next, we generated a polyclonal pool of dCas9-KRAB-expressing K562 cells. We seeded each well of a 6-well plate with 200,000 cells each containing 2 mL of growth media supplemented with 4 μg/ml polybrene and 1,000,000 infectious lentiviral particles for an estimated multiplicity of infection (MOI) of 5. Plates were centrifuged at 2,000 g for 30 minutes and returned to the incubator. After 48 hours, cells were split to mid-log phase concentration (˜400,000 cells/nil) and selected on blasticidin (10 μg/ml) for 48 hours. We made frozen stocks from these cells.
For the knockdown experiments, cells were thawed and allowed to recover for 4 days. We confirmed that the proportions of CD24^high/CD24^low was approximately equal at this point. We then seeded 200,000 cells into each well of a 6-well plate. Three wells received the BRD4 gRNA lentivirus, while the other three received the non-targeting gRNA lentivirus, at MOI 2.5. We followed the same transduction protocol described above. After 48 hours of incubation, puromycin was added to the medium at a final concentration of 2 μg/ml. After a further 48 hours, cells were passaged 1:1 into 10 cm dishes containing 10 mL of growth medium. […]

[8] = nocodazole 40 ng/μl, RO-3306 4.5 μM

Question: Which “Development (as DLTs occurred at subtherapeutic doses of drug)” value ([1]; 5-40 mg 2×/week in 21 day cycle) does the source give for `CNC(=O)N1N=C(c2ccc(N3CCN(C)CC3)cc2)c2cc(OC)c(OC)cc2C[C@@H]1C` [BAY1238097] here?
Answer: halted as

Question: And the “Recurrent headaches, patients” value ([1]; 10 and 40 mg cohorts)?
Answer: in 50%

Question: What about the DLTs ([1]; headache) of the same molecule?
Answer: headache,

Question: What about the DLTs ([1]; low back pain) of the same molecule?
Answer: G3 low back

Question: And the DLTs ([1]; vomiting)?
Answer: G3 vomiting,

Question: What does the source list for `Cc1noc2c1-c1ccccc1C(c1ccc(Cl)cc1)=N[C@H]2CC(N)=O` [CPI-0610]?
Answer: primary toxicity ([2]; dose dependent, reversible): thrombocytopenia;; Responses observed: CR ([2]; number of patients of 44): 2; Responses observed: PR ([2]; number of patients of 44): 1; Responses observed: SD ([2]; number of patients of 44): PR; 6 SD; Responses observed: with responses not qualifying as PR ([2]; number of patients of 44): 5 with; patients with G3 diarrhea ([2]; of 44 patients): 1 patient with; patients with G4 thrombocytopenia ([2]; of 44 patients): 1 patient with

Question: For `COc1ccc(CNc2nc(N(CCO)CCO)nc3c2ncn3C(C)C)cc1` [CVT-313], which “cells in G1 phase / G1 arrest” value (K562 cells [3]) is on record?
Answer: significant increase

Question: Which “Responses observed: PR in NMC patients” value ([4]; 17 with NMC) does the source give for `CCNC(=O)C[C@@H]1N=C(c2ccc(Cl)cc2)c2cc(OC)ccc2-n2c(C)nnc21` [GSK525762] here?
Answer: 2

Question: What about the “Responses observed: SD in NMC patients” value ([4]; 17 with NMC) of the same molecule?
Answer: 4

Question: What about the RP2D ([4]; daily, 70 patients) of the same molecule?
Answer: 80 mg

Question: Which DLTs ([5]; G3) does the source give for `Cc1sc2c(c1C)C(c1ccc(Cl)cc1)=N[C@@H](CC(=O)Nc1ccc(O)cc1)c1nnc(C)n1-2` [MK-8628/OTX015] here?
Answer: hyponatremia

Question: What about the DLTs ([5]; G4, neutropenia) of the same molecule?
Answer: neutropenia,

Question: And the DLTs ([5]; G4, thrombocytopenia)?
Answer: thrombocytopenia, G4

Question: And the “Responses observed: OR (DLBCL)” value ([5]; number of patients of 45)?
Answer: 3 OR

Question: And the “Responses observed: with improvement of pleural effusion” value ([5]; number of patients of 45)?
Answer: (DLBCL), 1

Question: And the “Responses observed: with resolution of B symptoms” value ([5]; number of patients of 45)?
Answer: effusion; 2

Question: And the “Responses observed: with responses not meeting PR criteria” value ([5]; number of patients of 45)?
Answer: 2 with

Question: And the RP2D ([5]; q.d.s. × 14/21 days, 45 patients)?
Answer: 80 mg

Question: What about the anemia ([5]; toxicity incidence) of the same molecule?
Answer: (91%)

Question: What about the diarrhea ([5]; toxicity incidence) of the same molecule?
Answer: (47%),

Question: What about the dysgeusia ([5]; toxicity incidence) of the same molecule?
Answer: (15%),

Question: What about the fatigue ([5]; toxicity incidence) of the same molecule?
Answer: (27%),

Question: And the DLTs (Acute leukemia, MDS; diarrhea)?
Answer: diarrhea, G3

Question: And the DLTs (Acute leukemia, MDS; fatigue)?
Answer: fatigue.

Question: And the diarrhea (Acute leukemia, MDS; limited compliance)?
Answer: (34%),

Question: And the rash (Acute leukemia, MDS; limited compliance)?
Answer: rash (20%)

Question: And the “Responses observed: CR” value (Acute leukemia, MDS; number of patients of 41)?
Answer: 2

Question: And the “Responses observed: CRi (platelets) × 2 months” value (Acute leukemia, MDS; number of patients of 41)?
Answer: 1

Question: What about the RP2D (Acute leukemia, MDS; q.d.s. × 14/21 days, 41 patients) of the same molecule?
Answer: 80 mg

Question: And the toxicities of interest (NMC; G2, dysgeusia)?
Answer: dysgeusia,

Question: And the toxicities of interest (NMC; G2, fatigue)?
Answer: G2 fatigue

Question: And the toxicities of interest (NMC; G2, hyperglycemia)?
Answer: hyperglycemia,

Question: What about the toxicities of interest (NMC; G2, nausea) of the same molecule?
Answer: G2 nausea, G2

Question: What about the toxicities of interest (NMC; G3) of the same molecule?
Answer: thrombocytopenia,

Question: What about the “Responses observed: PR” value (NMC; number of patients of 4) of the same molecule?
Answer: 2

Question: And the “Responses observed: SD” value (NMC; number of patients of 4)?
Answer: 1

Question: And the “Responses observed: CR” value ([6]; number of patients of 36)?
Answer: 1 CR; 1 CRi

Question: What about the “Responses observed: CRi (platelets)” value ([6]; number of patients of 36) of the same molecule?
Answer: 1 CR; 1 CRi

Question: And the “Responses observed: with disappearance of hypertrophied gums” value ([6]; number of patients of 36)?
Answer: clearance, 1

Question: And the MTD ([6]; q.d.s., 36 patients)?
Answer: 120 mg

Question: And the abdominal pain ([6]; toxicity incidence)?
Answer: pain (11%),

Question: What about the “decreased factor VII” value ([6]; toxicity incidence) of the same molecule?
Answer: (21%)

Question: What about the dysgeusia ([6]; toxicity incidence) of the same molecule?
Answer: (11%),

Question: And the “Responses observed: PR” value (NMC, CRPC, NSCLC; number of patients of 47)?
Answer: 4

Question: What about the “Responses observed: SD” value (NMC, CRPC, NSCLC; number of patients of 47, for 4-8 months) of the same molecule?
Answer: 5

Question: And the G3-4 thrombocytopenia (NMC, CRPC, NSCLC; toxicity incidence)?
Answer: (20%), G3

Question: What about the G3 anemia (NMC, CRPC, NSCLC; toxicity incidence) of the same molecule?
Answer: (9%), G3

Question: What about the G3 fatigue (NMC, CRPC, NSCLC; toxicity incidence) of the same molecule?
Answer: fatigue (7%)

Question: For `O=C1NC(=NCc2cccs2)S/C1=C\c1ccc2ncccc2c1` [RO-3306], which G2 arrest (K562 cells [3]; [8]) is on record?
Answer: significant G2 arrest

Question: Which “apoptosis of CD24low versus CD24high K562 cells when exposed to imatinib” value (K562 cells [7]) does the source give for `Cc1ccc(NC(=O)c2ccc(CN3CCN(C)CC3)cc2)cc1Nc1nccc(-c2cccnc2)n1` [imatinib] here?
Answer: more apoptosis

Question: With `CC[C@H](C)C(=O)O[C@H]1C[C@@H](C)C=C2C=C[C@H](C)[C@H](CC[C@@H]3C[C@@H](O)CC(=O)O3)[C@H]21` [lovastatin] as the molecule, how does the “cells in G1 phase / G1 arrest” value (K562 cells [3]) read?
Answer: significant decrease

Question: For `COC(=O)Nc1nc2ccc(C(=O)c3cccs3)cc2[nH]1` [nocodazole], which G2 arrest (K562 cells [3]; [8]) is on record?
Answer: significant G2 arrest

Question: And the “surviving cells after five days of treatment” value (K562 cells [3]; K562, nocodazole 40 ng/μl, RO-3306 4.5 μM)?
Answer: very few surviving cells

Question: Which results are given for “BRD4 gRNA: guide RNA GCGGCTGCCGGCGGTGCCCG for knockdown of BRD4 with CRISPRi (dCas9-KRAB) (listed as DNA, chemistry not given here)”?
Answer: sensitization of K562 cells to imatinib (BRD4; imatinib 1 μM, Tukey's HSD p=0.68 (FIG. 14E-14F)): partially phenocopied; proportion of CD24high cells compared to non-targeting (NT) gRNA (BRD4; nine days after gRNA transduction, Welch's t test p<0.01 (FIG. 6E), not to the same levels as JQ1): significant decrease; reduction of BRD4 mRNA levels (BRD4; qRT-PCR (FIG. 14D)): less than 50%

Reference: US11938138B2, “Methods for improved treatment of cancer” (Washington University, priority 2020, dated 2024)
